Results as given in patent publication US9463256B2, “Pretargeting kit, method and agents used therein” (KONINKLIJKE PHILIPS N.V., priority 2010, dated 2016).

Assay: Trans-cyclooctene stability in vivo (blood samples reacted with excess ^111In-tetrazine 28)
Design: species or system mice
Conditions: TCO bound to CC49, tumor-free mice
Description: Tumor-free mice (n=3 per group) were injected intravenously with CC49-PEG10-TCO-O major (CC49-23a; 8.4 TCO per CC49; 300 μg/100 μL per mouse), CC49-PEG10-TCO-C minor (CC49-27b; 3.3 TCO per CC49, […]), and CC49-TCO-O major without spacer (CC49-20a; 8.0 TCO per CC49, 300 μg/100 μL per mouse). At selected time points (from 1 hour up to 4 days post injection) blood samples were withdrawn from the vena saphena and collected in vials containing heparin. The blood samples were weighed and an excess ^111In-tetrazine 28 was added. After 20 min incubation at 37° C., blood aliquots were 10-fold diluted with PBS and analyzed by SDS-PAGE. The cycloaddition yields were determined from the radioactivity in the bands corresponding to the mAb and the counts were quantified with AIDA Image Analyzer software. The amount of mAb present in blood at each time point (% ID/g blood) was evaluated in three separate groups of mice (n=3), which were injected with the corresponding ^125I—CC49-TCO (300 μg/100 μL per mouse, ca. 0.2 MBq). The data, corrected for mAb clearance, were normalized to 100% ID TCO at t=0.
This experiment was carried out to expand the series of in vivo TCO stability measurements described in Example 6. […] In the new experiment, following the same procedure, we tested the in vivo stability of a CC49-bound TCO minor without PEG spacer (20b, 6.9 equivalents bound).

Structure (SMILES): O=C(ON1C(=O)CCC1=O)c1ccc(COC2CC/C=C/CCC2)cc1 (stereo not shown) [20a, (E-major)-2,5-Dioxopyrrolidin-1-yl 4-((cyclooct-4-enyloxy)methyl)benzoate]
- time stable in vivo: at least 4 days
